The source of these data is patent publication EP3494998A1, “GLYCOSYLATED PSMA INHIBITORS FOR IMAGING AND ENDORADIOTHERAPY” (Technische Universität München, priority 2017, dated 2019).

Where two headings read alike, the source gives them in different places.

Data set [1] addresses T1, PSMA (Homo sapiens, UniProt Q04609).
T1 construct: PSMA-positive LNCAP cells (200265; Cell Lines Service GmbH) were cultivated; host or cells: LNCaP human prostate cancer cells
In words: competitive binding assay (IC50) on LNCaP cells with ([125I]I-BA)KuE as radioligand. As to conditions: LNCaP cells (150,000/well); ([125I]I-BA)KuE (c = 0.2 nM) as radioligand; HBSS (1% BSA), 4°C, 1 h; natGa or natLu analogs; mean ± SD (n = 3). How it is done:
One day (24h ± 2h) prior to all experiments with LNCaP cells, the cultivated cells were harvested using a mixture of trypsin/ethylendiaminetetraacetate (0.05%/ 0.02%) and phosphate buffered saline and centrifuged. After centrifugation, the supernatant was disposed and the cell pellet resuspended in culture medium. Afterwards, cells were counted with a hemocytometer (Neubauer) and seeded in 24-well plates.
Cells were incubated in HBSS (1% BSA) at 4°C for 1 h.

Data set [2] relates to LNCaP cells. In words: cell surface binding and internalization in LNCaP cells. Type of data set: cell-based, human. As to conditions: for internalized fraction of total applied activity: 60 min incubation, not normalized, 0.2 nM (68Ga) or 0.5 nM (177Lu); for Internalization [%]: normalized to reference ([125I]I-BA)KuE, corrected for unspecific binding, c = 0.2 nM for 68Ga and 0.5 nM for 177Lu compounds, 37°C, 1 h, 125,000 cells/well, mean ± SD (n = 3). How it is done:
One day (24h ± 2h) prior to all experiments with LNCaP cells, the cultivated cells were harvested using a mixture of trypsin/ethylendiaminetetraacetate (0.05%/ 0.02%) and phosphate buffered saline and centrifuged. After centrifugation, the supernatant was disposed and the cell pellet resuspended in culture medium. Afterwards, cells were counted with a hemocytometer (Neubauer) and seeded in 24-well plates. […]
To differentiate between the cell surface bound and internalized fraction, a PMPA-wash (1.0 µM) was performed to remove the specifically bound radioligand.

Data set [3] can be described thus: lipophilicity (logP), shake flask method. Type of data set: physicochemical. The following applies: n-octanol and PBS (pH 7.4); radiolabeled compounds; mean ± SD (n = 6). How it is done:
The logP values were determined as described (Weineisen, M., et al., Synthesis and preclinical evaluation of DOTAGA-conjugated PSMA ligands for functional imaging and endoradiotherapy of prostate cancer. EJNMMI research, 2014. 4(1): p. 1). The experimental details are described in the supplementary info.
The determination of the logP was used to assess lipophilicity. The values for the respective radiolabeled compounds from Table 2 were obtained using the shake flask method (n = 6) in n-octanol and PBS (pH 7.4). […] For all compounds, the respective ^177Lu-labeled analog was more lipophilic than the ^68Ga-labeled counterpart.

Data set [4] addresses human serum albumin (HSA) (Homo sapiens, UniProt P02768). In words: HSA binding by HPLC on a column with immobilized human albumin. The following applies: natGa- and natLu-labeled inhibitors; HPLC retention time with non-linear regression calibration on nine reference substances. An excerpt: The Fmoc-(9-fluorenylmethoxycarbonyl-) and all other protected amino acid analogs were purchased from Bachem (Bubendorf, Switzerland) or Iris Biotech (Marktredwitz, Germany). Dr. Schottelius from the laboratory of Prof. […] The tritylchloride polystyrene (TCP) resin was obtained from PepChem (Tubingen, Germany). Chematech (Dijon, France) delivered the chelator DOTAGA-anhydride. All necessary solvents and other organic reagents were purchased from either Alfa Aesar (Karlsruhe, Germany), Sigma-Aldrich (Munich, Germany) or VWR (Darmstadt, Germany). Solid phase synthesis of the peptides was carried out by manual operation using an Intelli-Mixer syringe shaker (Neolab, Heidelberg, Germany). […] Analysis of the peptides was performed by applying different gradients of 0.1% (v/v) trifluoroacetic acid (TFA) in H2O (solvent A) and 0.1% TFA (v/v) in acetonitrile (MeCN) (solvent B) with a constant flow of 1 mL/min (specific gradients are cited in the text). […] Human serum albumin (HSA) binding was determined using a Chiralpak HSA 50 x 3 mm 5µm Analytical Column connected to a Chiralpak HSA 10 x 3 mm 5µm Guard Cartridge (Daicel Chemical Industries) purchased from Chiral Technologies Europe (France). Non-linear regression for the HSA binding was performed using OriginPro 2016G. Both retention times tR as well as the capacity factors K' are cited in the text. Preparative RP-HPLC of the peptides was achieved on a Shimadzu HPLC system using a Multospher 100 RP 18-5 (250 x 20 mm) column (CS GmbH, Langerwehe, Germany) with a constant flow of 5 mL/min. […] Radioactivity was detected through connection of the outlet of the UV-photometer to a Nal(TI) well-type scintillation counter from EG&G Ortec (Munich, Germany). […] ESI-mass spectra were acquired on an expression^L CMS mass spectrometer (Advion Ltd., Harlow, UK) and on a Varian 500-MS IT mass spectrometer (Agilent Technologies, Santa Clara, USA). For the HSA binding experiment a Chiralpak HSA 50 x 3 mm 5µm Analytical Column, (Daicel Chemical Industries, LTD) connected to a Chiralpak HSA 10 x 3 mm 5µm Guard Cartridge (Daicel Chemical Industries; Chiral Technologies Europe) was used. Blood samples were collected from volunteers.
The mobile phase consisted of a binary gradient system with a constant total flow rate of 0.5mL/min. Mobile phase A was a 50 mM pH 6.9 ammonium acetate solution, mobile phase B was 2-Propanol (HPLC grade, VWR, Germany). The gradient, of mobile phase A was 100% from 0 to 3 min and from 3 min to the end of each run, mobile phase B was set 20%. […] Afterwards, the actual PSMA inhibitors with unknown HSA binding were measured. More details are found in the supplementary info.
To diminish the influence of temperature and small pH fluctuations of the NH4OAc buffer on binding (retention time), a set of nine substances with known HSA binding coefficients was used to establish a calibration line by non-linear regression (log retention time vs. log HSA [%] binding).

Data set [5] has as its system LNCaP cells. As to conditions: PSMA I&T (18), data from a previous publication (Weineisen 2014), normalized to ([125I]I-BA)KuE, 60 min, cited from earlier work.
Data set [6] concerns human blood samples.
Experimental: Separation of the different blood cells was accomplished by stepwise centrifugation. Erythrocytes were gained after centrifugation at 700 g (1,400 rpm, Biofuge 15, Heraus Sepatech, Osterode, Germany) for 5 min and the pellet was rinsed with 500 µL of ice-cold PBS and again centrifuged. Leukocytes were gained by combination of the supernatant and subsequent centrifugation at 3,100 g (6,200 rpm) with a further washing step with 500 µL of ice-cold PBS and repeated centrifugation. The activities of the pellets (erythrocytes and leukocytes) and the supernatant were measured in a γ-counter. PSMA specific binding was determined by co-incubation with PMPA solution (100 µM).
In addition, 1.0 MBq of the used radiolabeled PSMA ligands were incubated in the presence of PMPA solution (100 µM) to differentiate between specific and unspecific binding.
In data set [7] the target is T1, PSMA. As to conditions: PSMA I&T (18), values taken from a previous publication (Weineisen 2014), same binding assay; cited from earlier work.
In data set [8] the test system is LNCaP tumor xenografts. In words: µPET imaging in mice bearing LNCaP tumor xenografts. The following applies: 85 min p.i.; dynamic µPET; LNCaP xenograft.
Experimental: For the tumor model, LNCaP cells (approx. 10^7 cells) were suspended 1:1 in serum-free DMEM-F12 medium and Matrigel (BD Biosciences, Germany) and inoculated onto the right shoulder of male, 6 to 8 weeks old CB-17 SCID mice (Charles River Laboratories, Sulzfeld, Germany). Animals were used after the tumor size reached 4 to 8 mm in diameter for experiments.
Imaging experiments were conducted using a Siemens Inveon small animal PET and data analyzed by the associated Inveon Research Workplace software. […] Dynamic imaging was carried out after on-bed injection for 90 min. The static blockade image was obtained, after 1 h p.i. with 15 min acquisition time. Blockade was done by coinjection of 8mg/kg of PMPA. All images were reconstructed using an OSEM3D algorithm without scanner and attenuation correction.
Over a period of 90 min, comparative dynamic µPET scans were performed with ^68Ga-13 and ^68Ga-18 in CB-17 SCID mice bearing LNCaP tumor xenografts to assess the kinetic tissue distribution.

human serum albumin (HSA), sequence (P02768 25-609): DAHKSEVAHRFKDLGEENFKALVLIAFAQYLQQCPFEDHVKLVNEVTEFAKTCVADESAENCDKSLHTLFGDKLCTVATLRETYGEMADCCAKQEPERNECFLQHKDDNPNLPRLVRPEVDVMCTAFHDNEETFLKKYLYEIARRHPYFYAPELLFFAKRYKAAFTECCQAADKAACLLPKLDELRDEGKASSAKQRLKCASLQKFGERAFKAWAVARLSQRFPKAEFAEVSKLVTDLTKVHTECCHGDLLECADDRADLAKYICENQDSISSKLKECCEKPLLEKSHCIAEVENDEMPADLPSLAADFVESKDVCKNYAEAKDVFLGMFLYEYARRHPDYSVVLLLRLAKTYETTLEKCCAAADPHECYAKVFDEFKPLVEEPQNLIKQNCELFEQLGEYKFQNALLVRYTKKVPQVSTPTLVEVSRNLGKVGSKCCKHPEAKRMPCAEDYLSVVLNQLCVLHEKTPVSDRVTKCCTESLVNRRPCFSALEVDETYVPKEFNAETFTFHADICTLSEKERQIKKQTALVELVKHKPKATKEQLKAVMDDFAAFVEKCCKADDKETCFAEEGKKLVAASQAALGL
T1 sequence (Q04609 whole entry): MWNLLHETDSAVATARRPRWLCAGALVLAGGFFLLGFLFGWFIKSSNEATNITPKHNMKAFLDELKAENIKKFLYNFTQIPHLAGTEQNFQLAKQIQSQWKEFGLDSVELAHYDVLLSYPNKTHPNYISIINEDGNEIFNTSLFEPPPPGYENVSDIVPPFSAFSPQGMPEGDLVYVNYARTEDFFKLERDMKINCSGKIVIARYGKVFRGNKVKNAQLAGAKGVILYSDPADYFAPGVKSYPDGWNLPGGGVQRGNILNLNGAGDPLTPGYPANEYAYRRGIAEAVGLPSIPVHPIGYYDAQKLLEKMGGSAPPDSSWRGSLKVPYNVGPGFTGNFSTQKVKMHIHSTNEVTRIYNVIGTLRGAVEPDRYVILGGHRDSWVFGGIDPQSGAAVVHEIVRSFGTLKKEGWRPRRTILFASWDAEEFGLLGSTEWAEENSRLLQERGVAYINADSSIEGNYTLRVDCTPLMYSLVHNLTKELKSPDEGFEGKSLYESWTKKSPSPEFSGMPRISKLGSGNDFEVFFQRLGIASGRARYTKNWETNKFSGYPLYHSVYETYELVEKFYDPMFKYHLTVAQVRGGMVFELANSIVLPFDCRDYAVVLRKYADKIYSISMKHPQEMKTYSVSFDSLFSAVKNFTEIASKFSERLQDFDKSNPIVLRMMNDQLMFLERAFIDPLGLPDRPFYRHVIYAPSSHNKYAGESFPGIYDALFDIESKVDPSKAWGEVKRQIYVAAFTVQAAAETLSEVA

Broadly, the IC50 is the concentration that gives 50% inhibition. Turning to “[^natGa]PSMA I&T Cellubiose [^nat/68Ga-15]”, the IC50 in data set [1] was 10.8 ± 1.7 nM. In addition, in data set [2], the “internalized fraction of total applied activity” value amounted to 1.3% and the “Internalization [%]” value was 4.0 ± 0.6%.

For orientation: logP means a log measure of how a compound divides between an organic and an aqueous phase. Higher therefore signals a more lipophilic compound. Consider “[^natGa]PSMA I&T Galactose [^nat/68Ga-13]”, for which the “Internalization [%]” value in data set [2] amounted to 18.7 ± 4.1%. Besides, the logP in data set [3] is recorded as -4.15 ± 0.07. Moreover, the “HSA [%]” value in data set [4] is reported as 7.7%.

In turn, “[^natLu]PSMA I&T Galactose [^nat/177Lu-13]” came in with an IC50 in data set [1] of 5.8 ± 0.6 nM. Further, in data set [2], the “internalized fraction of total applied activity” value came out at 11.3% and the “Internalization [%]” value came to 60.2 ± 2.8%. Moreover, the logP in data set [3] is -3.95 ± 0.12. In data set [4], the “HSA [%]” value was 23.3%.

PSMA I&T Galactose [compound 13]: the “Internalization [%]” value in data set [2] was 18.7% ± 4.1%.

As for [^177Lu]PSMA I&T [^nat/177Lu-18], the “Internalization [%]” value in data set [5] is reported as 75.5 ± 1.6%. Moreover, the values for the Binding to erythrocytes in data set [6] (simultaneous incubation with PMPA (100 µM)) and in data set [6] (without PMPA) were 29.2% and 38.9%, respectively. For the same substance, the leukocyte fraction was 0.2% in data set [6] (with PMPA (100 µM)) and 0.1% in data set [6] (without PMPA). For the same substance, the supernatant in data set [6] (with PMPA (100 µM)) worked out at 70.7%; in data set [6] (without PMPA) it was 61.1%. Moreover, the IC50 in data set [7] is 7.9 ± 2.4 nM. Also, in data set [4], the “HSA [%]” value came to 78.6%.

Consider [^68Ga]PSMA I&T [^nat/68Ga-18], for which the “Internalization [%]” value in data set [5] is 59.2 ± 1.7%; in data set [5] (listed as [^68Ga]PSMA I&T), 59.2% ± 1.7%. This substance also gave a tumor accumulation in data set [8] of 5.8 ± 0.3 %ID/mL. Also, the IC50 in data set [7] is 9.4 ± 2.9 nM. Besides, the “HSA [%]” value in data set [4] was 48.7%.

“[^natLu]PSMA I&T Cellobiose [^nat/177Lu-15]” registered a concentration for half-maximal inhibition (IC50) in data set [1] of 12.5 ± 2.3 nM. The “Internalization [%]” value in data set [2] is recorded as 22.3 ± 1.2%. The logP in data set [3] is -4.04 ± 0.1. In addition, the “HSA [%]” value in data set [4] turned out to be 19.9%.

“[^natLu]PSMA I&T Mannose [^nat/177Lu-14]” showed an IC50 in data set [1] of 5.9 ± 0.5 nM. In addition, the “Internalization [%]” value in data set [2] is 35.3 ± 2.9%. In data set [3], the logP is reported as -3.85 ± 0.04.

[^natGa]PSMA I&T Mannose [^nat/68Ga-14] registered an IC50 in data set [1] of 7.1 ± 0.3 nM. Besides, in data set [2], the “Internalization [%]” value was 8.4 ± 0.2%. In data set [3], this substance gave a logP of -4.01 ± 0.08.
